The assay concerns the target T1, human GLP-1R (Homo sapiens, UniProt P43220).
T1 construct: host or cells: HEK293
Nature of the assay: GLP-1R cAMP assay (Example B1a, HTRF, 30 min at room temperature). Type of assay: cell-based. The following applies: cAMP accumulation in HEK293 expressing human GLP-1R, no BETP, 30 min room temperature (Method B1a, compounds ID 1-609), Table 1; read-out: EC50. In outline: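 Competitive HTRF read-out of cAMP after 30 min room-temperature stimulation, BETP absent, of human GLP-1R-HEK293 cells (1,000/well) in HEPES buffer with 500 μM IBMX and 0.1% BSA. Activation normalised to GLP-1(7-37) positive control. EC50 from 4-parameter non-linear regression.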
T1 sequence (P43220 24-463): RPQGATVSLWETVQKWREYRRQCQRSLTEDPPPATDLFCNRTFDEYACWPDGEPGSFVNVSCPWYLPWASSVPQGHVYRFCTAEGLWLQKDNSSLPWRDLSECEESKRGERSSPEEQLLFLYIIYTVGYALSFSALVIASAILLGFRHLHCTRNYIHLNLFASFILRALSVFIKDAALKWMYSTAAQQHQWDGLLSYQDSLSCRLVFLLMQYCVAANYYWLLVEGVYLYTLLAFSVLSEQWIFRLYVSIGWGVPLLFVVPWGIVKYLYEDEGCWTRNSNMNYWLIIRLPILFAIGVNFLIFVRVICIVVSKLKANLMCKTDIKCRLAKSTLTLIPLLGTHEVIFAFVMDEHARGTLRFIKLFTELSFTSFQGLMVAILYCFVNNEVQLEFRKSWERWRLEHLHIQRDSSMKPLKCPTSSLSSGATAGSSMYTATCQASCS
As usually defined, the EC50 is the midpoint of the concentration-response curve. For `Cc1cc(-n2nc3c(c2-n2ccn(-c4ccc5c(cnn5C)c4F)c2=O)CN(C(=O)c2cc4cc([C@H]5CCOC(C)(C)C5)ccc4n2[C@@]2(c4noc(=O)[nH]4)C[C@@H]2C)CCC3)cc(C)c1F` [Compound 416, 3-((1S,2S)-1-(5-((S)-2,2-dimethyltetrahydro-2H-pyran-4-yl)-2-(3-(3-(4-fluoro-1-methyl-1H-indazol-5-yl)-2-oxo-2,3-dihydro-1H-imidazol-1-yl)-2-(4-fluoro-3,5-dimethylphenyl)-2,4,5,6,7,8-hexahydropyrazolo[4,3-c]azepine-5-carbonyl)-1H-indol-1-yl)-2-methylcyclopropyl)-1,2,4-oxadiazol-5(4H)-one], the EC50 worked out at 0.162 µM.
`Cc1cc(-n2nc3c(c2-n2ccn(-c4ccc5c(cnn5C)c4F)c2=O)[C@@H]2CC[C@H](C3)N2Cc2cc3cc([C@H]4CCOC(C)(C)C4)ccc3n2[C@@]2(c3noc(=O)[nH]3)C[C@@H]2C)cc(C)c1F` [Compound 417, 3-((1S,2S)-1-(5-((S)-2,2-dimethyltetrahydro-2H-pyran-4-yl)-2-(((4S,7R)-3-(3-(4-fluoro-1-methyl-1H-indazol-5-yl)-2-oxo-2,3-dihydro-1H-imidazol-1-yl)-2-(4-fluoro-3,5-dimethylphenyl)-2,4,5,6,7,8-hexahydro-4,7-epiminocyclohepta [c]pyrazol-9-yl)methyl)-1H-indol-1-yl)-2-methylcyclopropyl)-1,2,4-oxadiazol-5(4H)-one]: the concentration for a half-maximal effect (EC50) came to 0.11 µM.
As for `Cc1cc(-n2nc3c(c2-n2ccn(-c4ccc5c(cnn5C)c4F)c2=O)[C@@H]2CC[C@H](C3)N2C(=O)c2cc3cc(C4COC(C)(C)C4)ccc3n2[C@@]2(c3noc(=O)[nH]3)C[C@@H]2C)cc(C)c1F` (stereo partly drawn) [Compound 418, 3-[(1S,2S)-1-[5-(5,5-dimethyltetrahydrofuran-3-yl)-2-[(1S,8R)-4-(4-fluoro-3,5-dimethyl-phenyl)-3-[3-(4-fluoro-1-methyl-indazol-5-yl)-2-oxo-imidazol-1-yl]-4,5,11-triazatricyclo[6.2.1.02,6]undeca-2,5-diene-11-carbonyl]indol-1-yl]-2-methyl-cyclopropyl]-4H-1,2,4-oxadiazol-5-one], the EC50 was determined as 0.836 µM.
For the compound `Cc1cc(-n2nc3c(c2-n2ccn(-c4ccc5c(cnn5C)c4F)c2=O)[C@@H]2CC[C@H](C3)N2C(=O)c2cc3cc([C@H]4CCOC4(C)C)ccc3n2[C@@]2(c3noc(=O)[nH]3)C[C@@H]2C)cc(C)c1F` [Compound 419, 3-[(1S,2S)-1-[5-[(3R)-2,2-dimethyltetrahydrofuran-3-yl]-2-[(1S,8R)-4-(4-fluoro-3,5-dimethyl-phenyl)-3-[3-(4-fluoro-1-methyl-indazol-5-yl)-2-oxo-imidazol-1-yl]-4,5,11-triazatricyclo[6.2.1.02,6]undeca-2,5-diene-11-carbonyl]indol-1-yl]-2-methyl-cyclopropyl]-4H-1,2,4-oxadiazol-5-one], the EC50 was not below 10 µM.
`Cc1cc(-n2nc3c(c2-n2ccn(-c4ccc5c(cnn5C)c4F)c2=O)[C@@H]2CC[C@H](C3)N2C(=O)c2cc3cc([C@@H]4CCOC4(C)C)ccc3n2[C@@]2(c3noc(=O)[nH]3)C[C@@H]2C)cc(C)c1F` [Compound 420, 3-[(1S,2S)-1-[5-[(3S)-2,2-dimethyltetrahydrofuran-3-yl]-2-[(1S,8R)-4-(4-fluoro-3,5-dimethyl-phenyl)-3-[3-(4-fluoro-1-methyl-indazol-5-yl)-2-oxo-imidazol-1-yl]-4,5,11-triazatricyclo[6.2.1.02,6]undeca-2,5-diene-11-carbonyl]indol-1-yl]-2-methyl-cyclopropyl]-4H-1,2,4-oxadiazol-5-one]: the EC50 was determined as 0.65 µM.
Consider `Cc1cc(-n2nc3c(c2-n2ccn(-c4ccc5c(cnn5C)c4F)c2=O)CCN(C(=O)c2cc4cc([C@H]5CCOC(C)(C)C5)ccc4n2[C@@]2(c4noc(=O)[nH]4)C[C@@H]2C)CC3)cc(C)c1F` [Compound 421, 3-[(1S,2S)-1-[5-[(4S)-2,2-dimethyltetrahydropyran-4-yl]-2-[2-(4-fluoro-3,5-dimethyl-phenyl)-3-[3-(4-fluoro-1-methyl-indazol-5-yl)-2-oxo-imidazol-1-yl]-4,5,7,8-tetrahydropyrazolo[3,4-d]azepine-6-carbonyl]indol-1-yl]-2-methyl-cyclopropyl]-4H-1,2,4-oxadiazol-5-one], for which the EC50 was not below 10 µM.
`Cc1cc(-n2nc3c(c2-n2ccn(-c4cccc(C(N)=O)c4F)c2=O)[C@@H]2CC[C@H](C3)N2C(=O)c2cc3cc([C@H]4CCOC(C)(C)C4)ccc3n2[C@@]2(c3noc(=O)[nH]3)C[C@@H]2C)cc(C)c1F` [Compound 422, 3-[3-[(1S,8R)-11-[5-[(4S)-2,2-dimethyltetrahydropyran-4-yl]-1-[(1S,2S)-2-methyl-1-(5-oxo-4H-1,2,4-oxadiazol-3-yl)cyclopropyl]indole-2-carbonyl]-4-(4-fluoro-3,5-dimethyl-phenyl)-4,5,11-triazatricyclo[6.2.1.02,6]undeca-2,5-dien-3-yl]-2-oxo-imidazol-1-yl]-2-fluoro-benzamide]: the concentration giving a half-maximal response (EC50) was 0.303 µM.
The result for `Cc1cc(-n2nc3c(c2-n2ccn(-c4ccc5c(cnn5C)c4F)c2=O)[C@@H]2CC[C@H](C3)N2C(=O)c2cc3cc([C@H]4COC(C)(C)C4)ccc3n2[C@@]2(c3noc(=O)[nH]3)C[C@@H]2C)cc(C)c1F` [Compound 423, 3-[(1S,2S)-1-[5-[(3S)-5,5-dimethyltetrahydrofuran-3-yl]-2-[(1S,8R)-4-(4-fluoro-3,5-dimethyl-phenyl)-3-[3-(4-fluoro-1-methyl-indazol-5-yl)-2-oxo-imidazol-1-yl]-4,5,11-triazatricyclo[6.2.1.02,6]undeca-2,5-diene-11-carbonyl]indol-1-yl]-2-methyl-cyclopropyl]-4H-1,2,4-oxadiazol-5-one] reads 2.12 µM.
With `Cc1cc(-n2nc3c(c2-n2ccn(-c4ccc5c(cnn5C)c4F)c2=O)[C@@H]2CC[C@H](C3)N2C(=O)c2cc3cc([C@@H]4CCOC5(CCC5)C4)ccc3n2[C@@]2(c3noc(=O)[nH]3)C[C@@H]2C)cc(C)c1F` [Compound 424, 3-((1S,2S)-1-(2-((4S,7R)-3-(3-(4-fluoro-1-methyl-1H-indazol-5-yl)-2-oxo-2,3-dihydro-1H-imidazol-1-yl)-2-(4-fluoro-3,5-dimethylphenyl)-2,4,5,6,7,8-hexahydro-4,7-epiminocyclohepta [c]pyrazole-9-carbonyl)-5-((R)-5-oxaspiro[3.5]nonan-8-yl)-1H-indol-1-yl)-2-methylcyclopropyl)-1,2,4-oxadiazol-5(4H)-one], the EC50 was not below 10 µM.
In the case of `Cc1cc(-n2nc3c(c2-n2ccn(-c4ccc5c(cnn5C)c4F)c2=O)[C@@H]2CC[C@H](C3)N2C(=O)c2cc3cc([C@@H]4COC(C)(C)C4)ccc3n2[C@@]2(c3noc(=O)[nH]3)C[C@@H]2C)cc(C)c1F` [Compound 425, 3-[(1S,2S)-1-[5-[(3R)-5,5-dimethyltetrahydrofuran-3-yl]-2-[(1S,8R)-4-(4-fluoro-3,5-dimethyl-phenyl)-3-[3-(4-fluoro-1-methyl-indazol-5-yl)-2-oxo-imidazol-1-yl]-4,5,11-triazatricyclo[6.2.1.02,6]undeca-2,5-diene-11-carbonyl]indol-1-yl]-2-methyl-cyclopropyl]-4H-1,2,4-oxadiazol-5-one], the EC50 came to 0.292 µM.

The values are drawn from US12617783B2, “Heterocyclic GLP-1R agonists” (BIOMEA FUSION, INC., priority 2024, dated 2026).
